# Reference: patent US9265781B2, “Process for producing a particulate composition comprising anhydrous crystalline 2-O-alpha-D-glucosyl-L-ascorbic acid” (HAYASHIBARA CO., LTD., priority 2009, dated 2016)
# Key:
# Format in all cases: physicochemical
# [1] = Caking test (Experiment 1-4); parameters: key: “Caked”, (+): Sample clearly keeps the hemispherical shape of the bottom of the tube even when placed on the plate; “Slightly caked”, (±): Sample slightly but distinguishably shows the hemispherical shape of the bottom of the tube; “Not caked” (−): Sample does not keep the hemispherical shape of the bottom of the tube; conditions: 1 g in 14-ml polypropylene tube, 50° C., 24 hours, macroscopic observation
# Experimental: The following experiment was performed to investigate the caking of respective Test samples 1 to 4: One gram aliquots of each of Test samples 1 to 4, prepared in Experiment 1-1, were separately filled into “FALCON TUBE 2059”, a product name of a 14-ml polypropylene cylindrical tube (1.7 cm in diameter, 10 cm in height) having a hemispherical bottom shape and a cap, commercialized by Becton, Dickinson and Company, New Jersey, USA. The tubes were uprightly set to a tube rack and allowed to stand for 24 hours, after the tube rack was placed in “IC-410”, a product name of an incubator commercialized Advantec Toyo Kaisha, Ltd., Tokyo, Japan, controlled at 50° C. After the incubation, the tubes were taken out from the incubator, followed by removing each cap, taking out each test sample from each tube to place it on a black-plastic-plane plate by turning the tubes upside down slowly, and macroscopically observing the conditions of the resulting test samples.
# [2] = Solubility in hydrophilic solvent, 30% 1,3-butylene glycol (Experiment 6); conditions: same test as in Experiment 6
# From the text: Any one of the above test samples and the particulate compositions of Examples 1 to 4 was weighed 0.25 g and placed in “FALCON TUBE 2059”, a product name of a 14-ml polypropylene cylindrical tube having a hemispherical bottom shape and a cap, commercialized by Becton, Dickinson and Company, New Jersey, USA. […]
# [3] = Storage stability test (Experiment 3-2); parameters: key: “Caked” (+), clump(s) is/are detected in a test sample and the flowability of the test sample has lowered in comparison with that at the initiation of the test; “Not caked” (−), no clump is detected in a test sample and the flowability of the test sample has not been changed in comparison with that at the initiation of the test; conditions: 10 kg in open polyethylene-double-bag in uncapped steel can, 45 days; flowability and caked state
# From the text: To confirm that the caking test conducted in Experiment 1-4, etc., is a proper test for evaluating the caking of a particulate composition containing anhydrous crystalline ascorbic acid 2-glucoside when actually stored, Test sample 1 obtained in Experiment 1-1, Test samples 10 to 15 obtained in Experiment 3-1, and Test sample 16 were subjected to a storage stability test which was designed by taking account of conditions, environment, and period of time for actual storage of a particulate composition containing anhydrous crystalline ascorbic acid 2-glucoside.
# Ten kilogram aliquots of any of Test samples 1 and 10 to 16 were respectively weighed and placed in a polyethylene-double-bag (800 mm by 600 mm) for each test sample. Then, each bag was placed in a 18-liter steel can in such a manner of allowing the opening part of each bag to open and stand upright without closing the opening part, allowing the bags to stand without capping the steel cans, and storing for 45 days in a room away from a relatively high temperature and humidity. After 45 days storage, each polyethylene-double-bag enclosing any of the test samples was taken out from the cans, and the samples were taken out from the bags and placed on a black-plastic-plane-plate for macroscopic observation of their flowabilities and caked states.
# The test samples were judged about their caking by the following criteria: “Caked” (+), clump(s) is/are detected in a test sample and the flowability of the test sample has lowered in comparison with that at the initiation of the test; and “Not caked” (−), no clump is detected in a test sample and the flowability of the test sample has not been changed in comparison with that at the initiation of the test. The storage form of each test sample in the storage stability test is the same as that of a quasi-drug-grade powder that is commercially distributed and stored, except for not closing the opening part of the bag with a rubber band, not putting in any desiccant, and being stored in a steel can without closing it with a lid. The above three differences were of those, which had been set as a storage environment for a storage test that was slightly harder than an actual storage environment, to expedite the test results. The results are in Table 3 in parallel.
Caking [1],"Solubility in 1,3-butylene glycol (judgement in words) [2]",Storage stability [3],Structure (SMILES)
+,Passable solubility,,"O=C1O[C@H]([C@@H](O)CO)C(O)=C1O[C@H]1O[C@H](CO)[C@@H](O)[C@H](O)[C@H]1O [Comparative Example 1, 2-O-α-D-glucosyl-L-ascorbic acid]"
+,Passable solubility,,"O=C1O[C@H]([C@@H](O)CO)C(O)=C1O[C@H]1O[C@H](CO)[C@@H](O)[C@H](O)[C@H]1O [Comparative Example 2, 2-O-α-D-glucosyl-L-ascorbic acid]"
−,,−,"O=C1O[C@H]([C@@H](O)CO)C(O)=C1O[C@H]1O[C@H](CO)[C@@H](O)[C@H](O)[C@H]1O [Example 1, 2-O-α-D-glucosyl-L-ascorbic acid]"
−,,−,"O=C1O[C@H]([C@@H](O)CO)C(O)=C1O[C@H]1O[C@H](CO)[C@@H](O)[C@H](O)[C@H]1O [Example 2, 2-O-α-D-glucosyl-L-ascorbic acid]"
−,,−,"O=C1O[C@H]([C@@H](O)CO)C(O)=C1O[C@H]1O[C@H](CO)[C@@H](O)[C@H](O)[C@H]1O [Example 3, 2-O-α-D-glucosyl-L-ascorbic acid]"
−,,−,"O=C1O[C@H]([C@@H](O)CO)C(O)=C1O[C@H]1O[C@H](CO)[C@@H](O)[C@H](O)[C@H]1O [Example 4, 2-O-α-D-glucosyl-L-ascorbic acid]"
−,Passable solubility,,"O=C1O[C@H]([C@@H](O)CO)C(O)=C1O[C@H]1O[C@H](CO)[C@@H](O)[C@H](O)[C@H]1O [Example 5, 2-O-α-D-glucosyl-L-ascorbic acid]"
−,Passable solubility,,"O=C1O[C@H]([C@@H](O)CO)C(O)=C1O[C@H]1O[C@H](CO)[C@@H](O)[C@H](O)[C@H]1O [Example 6, 2-O-α-D-glucosyl-L-ascorbic acid]"
−,Passable solubility,,"O=C1O[C@H]([C@@H](O)CO)C(O)=C1O[C@H]1O[C@H](CO)[C@@H](O)[C@H](O)[C@H]1O [Example 7, 2-O-α-D-glucosyl-L-ascorbic acid]"
− and ±,Passable solubility,,"O=C1O[C@H]([C@@H](O)CO)C(O)=C1O[C@H]1O[C@H](CO)[C@@H](O)[C@H](O)[C@H]1O [Example 8, 2-O-α-D-glucosyl-L-ascorbic acid]"
−,Impassable solubility,−,"O=C1O[C@H]([C@@H](O)CO)C(O)=C1O[C@H]1O[C@H](CO)[C@@H](O)[C@H](O)[C@H]1O [Example for Reference 1, 2-O-α-D-glucosyl-L-ascorbic acid]"
−,,−,"O=C1O[C@H]([C@@H](O)CO)C(O)=C1O[C@H]1O[C@H](CO)[C@@H](O)[C@H](O)[C@H]1O [Test sample 1, 2-O-α-D-glucosyl-L-ascorbic acid]"
+,,,"O=C1O[C@H]([C@@H](O)CO)C(O)=C1O[C@H]1O[C@H](CO)[C@@H](O)[C@H](O)[C@H]1O [Test sample 2, 2-O-α-D-glucosyl-L-ascorbic acid]"
+,,,"O=C1O[C@H]([C@@H](O)CO)C(O)=C1O[C@H]1O[C@H](CO)[C@@H](O)[C@H](O)[C@H]1O [Test sample 3, 2-O-α-D-glucosyl-L-ascorbic acid]"
−,,,"O=C1O[C@H]([C@@H](O)CO)C(O)=C1O[C@H]1O[C@H](CO)[C@@H](O)[C@H](O)[C@H]1O [Test sample 4, 2-O-α-D-glucosyl-L-ascorbic acid]"
−,,,"O=C1O[C@H]([C@@H](O)CO)C(O)=C1O[C@H]1O[C@H](CO)[C@@H](O)[C@H](O)[C@H]1O [Test sample 5, 2-O-α-D-glucosyl-L-ascorbic acid]"
−,,,"O=C1O[C@H]([C@@H](O)CO)C(O)=C1O[C@H]1O[C@H](CO)[C@@H](O)[C@H](O)[C@H]1O [Test sample 6, 2-O-α-D-glucosyl-L-ascorbic acid]"
−,,,"O=C1O[C@H]([C@@H](O)CO)C(O)=C1O[C@H]1O[C@H](CO)[C@@H](O)[C@H](O)[C@H]1O [Test sample 7, 2-O-α-D-glucosyl-L-ascorbic acid]"
±,,,"O=C1O[C@H]([C@@H](O)CO)C(O)=C1O[C@H]1O[C@H](CO)[C@@H](O)[C@H](O)[C@H]1O [Test sample 8, 2-O-α-D-glucosyl-L-ascorbic acid]"
+,,,"O=C1O[C@H]([C@@H](O)CO)C(O)=C1O[C@H]1O[C@H](CO)[C@@H](O)[C@H](O)[C@H]1O [Test sample 9, 2-O-α-D-glucosyl-L-ascorbic acid]"
+,,+,"O=C1O[C@H]([C@@H](O)CO)C(O)=C1O[C@H]1O[C@H](CO)[C@@H](O)[C@H](O)[C@H]1O [Test sample 10, 2-O-α-D-glucosyl-L-ascorbic acid]"
±,,+,"O=C1O[C@H]([C@@H](O)CO)C(O)=C1O[C@H]1O[C@H](CO)[C@@H](O)[C@H](O)[C@H]1O [Test sample 11, 2-O-α-D-glucosyl-L-ascorbic acid]"
−,,−,"O=C1O[C@H]([C@@H](O)CO)C(O)=C1O[C@H]1O[C@H](CO)[C@@H](O)[C@H](O)[C@H]1O [Test sample 19, 2-O-α-D-glucosyl-L-ascorbic acid]"
+,,+,"O=C1O[C@H]([C@@H](O)CO)C(O)=C1O[C@H]1O[C@H](CO)[C@@H](O)[C@H](O)[C@H]1O [Test sample 20, 2-O-α-D-glucosyl-L-ascorbic acid]"
−,,−,"O=C1O[C@H]([C@@H](O)CO)C(O)=C1O[C@H]1O[C@H](CO)[C@@H](O)[C@H](O)[C@H]1O [Test sample 21, 2-O-α-D-glucosyl-L-ascorbic acid]"
−,,−,"O=C1O[C@H]([C@@H](O)CO)C(O)=C1O[C@H]1O[C@H](CO)[C@@H](O)[C@H](O)[C@H]1O [Test sample 22, 2-O-α-D-glucosyl-L-ascorbic acid]"
+,,,"O=C1O[C@H]([C@@H](O)CO)C(O)=C1O[C@H]1O[C@H](CO)[C@@H](O)[C@H](O)[C@H]1O [Test sample 28, 2-O-α-D-glucosyl-L-ascorbic acid]"
